According to patent US8143290B2, “Chemical compounds 572” (AstraZeneca AB, priority 2006, dated 2012):

These compounds were tested against T1, recombinant human GR (Homo sapiens, UniProt P04150) (assay: Human Glucocorticoid Receptor (GR) Assay, fluorescence polarization). Conditions: GS Red tracer, incubated 2 h at r.t., XLfit model 205, read-out: GRhuFL_FP_v2 Mean IC50.
T1 construct: purchased Panvera/Invitrogen P2812 (kit P2893)
T1 sequence (P04150 1-777): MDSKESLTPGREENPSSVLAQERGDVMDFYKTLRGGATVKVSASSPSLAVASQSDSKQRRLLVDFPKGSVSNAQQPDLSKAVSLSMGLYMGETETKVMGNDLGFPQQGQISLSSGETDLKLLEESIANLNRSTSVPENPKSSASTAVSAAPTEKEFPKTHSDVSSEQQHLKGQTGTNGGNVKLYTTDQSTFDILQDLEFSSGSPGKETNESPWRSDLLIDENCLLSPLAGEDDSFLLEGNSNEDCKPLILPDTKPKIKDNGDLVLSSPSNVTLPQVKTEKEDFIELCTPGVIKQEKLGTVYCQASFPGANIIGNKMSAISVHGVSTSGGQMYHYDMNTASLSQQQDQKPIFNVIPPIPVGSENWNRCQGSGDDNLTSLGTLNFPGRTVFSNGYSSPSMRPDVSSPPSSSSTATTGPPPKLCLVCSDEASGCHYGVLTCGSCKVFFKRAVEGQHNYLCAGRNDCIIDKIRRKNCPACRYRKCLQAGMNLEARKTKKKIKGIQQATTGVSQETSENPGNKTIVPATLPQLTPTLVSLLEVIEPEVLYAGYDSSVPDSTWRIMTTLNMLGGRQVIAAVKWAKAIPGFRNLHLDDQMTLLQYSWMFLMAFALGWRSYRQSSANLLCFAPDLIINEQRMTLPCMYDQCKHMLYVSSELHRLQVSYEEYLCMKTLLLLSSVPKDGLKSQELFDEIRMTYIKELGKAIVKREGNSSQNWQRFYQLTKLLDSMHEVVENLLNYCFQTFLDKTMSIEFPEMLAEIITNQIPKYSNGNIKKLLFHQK
Assay type: binding
Method in brief: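 Fluorescence polarization kit assay: recombinant GR and GS Red fluorescent ligand with Stabilizing Peptide and DTT in potassium phosphate/sodium molybdate/EDTA screening buffer. Plates incubated 2 h in the dark at r.t.; DMSO served as 0% and dexamethasone as 100% control.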
CC(C)C(=O)NC(=O)C(Oc1ccc2c(cnn2-c2ccc(F)cc2)c1)c1ccccc1 (centres unmarked) [Example 137, N-[2-[1-(4-fluorophenyl)indazol-5-yl]oxy-2-phenyl-acetyl]-2-methyl-propanamide] gave an IC50 of 360 nM.
In the case of COc1cccc([C@@H](Oc2ccc3c(cnn3-c3ccc(F)cc3)c2)[C@H](C)NC(=O)[C@H](C)O)c1 [Example 58, (2S)-N-[(1R,2S)-1-[1-(4-fluorophenyl)indazol-5-yl]oxy-1-(3-methoxyphenyl)propan-2-yl]-2-hydroxy-propanamide], the IC50 is reported as 2.7 nM.
COc1cccc([C@@H](Oc2ccc3c(cnn3-c3ccc(F)cc3)c2)[C@H](C)N2C(=O)CNC2=O)c1 [Example 271, 3-[(1R,2S)-1-[1-(4-fluorophenyl)indazol-5-yl]oxy-1-(3-methoxyphenyl)propan-2-yl]imidazolidine-2,4-dione] was tested, and the IC50 was 21 nM.
C[C@H](NC(=O)C(F)(F)F)[C@H](Oc1ccc2c(cnn2C2CCCC2)c1)c1ccccc1 [Example 130, N-[(1R,2S)-1-(1-cyclopentylindazol-5-yl)oxy-1-phenyl-propan-2-yl]-2,2,2-trifluoro-acetamide] showed an IC50 of 2.5 nM.
C[C@H](NC(=O)C(C)(C)CO)[C@H](Oc1ccc2c(cnn2-c2ccc(F)cc2)c1)c1cccc(Cl)c1 [Example 255, N-[(1R,2S)-1-(3-chlorophenyl)-1-[1-(4-fluorophenyl)indazol-5-yl]oxy-propan-2-yl]-3-hydroxy-2,2-dimethyl-propanamide] showed an IC50 of 5.1 nM.
CC[S+]([O-])Cc1ccc([C@@H](Oc2ccc3c(cnn3-c3ccc(F)cc3)c2)[C@H](C)NC(=O)C(F)(F)F)cc1 (stereo partly drawn) [Example 26, N-[(1R,2S)-1-[4-(ethylsulfinylmethyl)phenyl]-1-[1-(4-fluorophenyl)indazol-5-yl]oxy-propan-2-yl]-2,2,2-trifluoro-acetamide] showed an IC50 of 5.9 nM.
With Cc1ccc([C@@H](Oc2ccc3c(cnn3-c3ccc(F)cc3)c2)[C@H](C)NC(=O)C2(C)CC2)cc1F [Example 213, N-[(1R,2S)-1-(3-fluoro-4-methyl-phenyl)-1-[1-(4-fluorophenyl)indazol-5-yl]oxy-propan-2-yl]-1-methyl-cyclopropane-1-carboxamide] the IC50 was 4.4 nM.
COc1cccc([C@@H](Oc2ccc3c(cnn3-c3ccc(F)cc3)c2)[C@H](C)NC(=O)c2ccco2)c1 [Example 86, N-((1R,2S)-1-(1-(4-fluorophenyl)-1H-indazol-5-yloxy)-1-(3-methoxyphenyl)propan-2-yl)furan-2-carboxamide] was tested, and the IC50 was 3.8 nM.
COc1cccc([C@@H](Oc2ccc3c(cnn3-c3ccc(F)cc3)c2)[C@H](C)NC(=O)c2cc(C)n(C)n2)c1 [Example 287, N-[(1R,2S)-1-[1-(4-fluorophenyl)indazol-5-yl]oxy-1-(3-methoxyphenyl)propan-2-yl]-1,5-dimethyl-pyrazole-3-carboxamide] showed an IC50 of 4.3 nM.
C[C@H](NC(=O)C(F)(F)F)[C@H](Oc1ccc2c(cnn2-c2ccc(CO)cc2)c1)c1ccccc1 [Example 141, 2,2,2-trifluoro-N-((1R,2S)-1-(1-(4-(hydroxymethyl)phenyl)-1H-indazol-5-yloxy)-1-phenylpropan-2-yl)acetamide] gave an IC50 of 3.3 nM.
With Cc1cnc(C(=O)N[C@@H](C)[C@H](Oc2ccc3c(cnn3-c3ccc(F)cc3)c2)c2cc(F)ccc2C)s1 [Example 201, N-[(1R,2S)-1-(5-fluoro-2-methyl-phenyl)-1-[1-(4-fluorophenyl)indazol-5-yl]oxy-propan-2-yl]-5-methyl-1,3-thiazole-2-carboxamide] the IC50 was 5.9 nM.
Compound Cc1cc(F)ccc1[C@@H](Oc1ccc2c(cnn2-c2ccc(F)cc2)c1)[C@H](C)NC(=O)C1(C)CC1 [Example 219, N-[(1R,2S)-1-(4-fluoro-2-methyl-phenyl)-1-[1-(4-fluorophenyl)indazol-5-yl]oxy-propan-2-yl]-1-methyl-cyclopropane-1-carboxamide] has an IC50 of 2.8 nM.
With CC(C)C(=O)N[C@@H](C)[C@H](Oc1ccc2c(cnn2-c2ccc(F)cc2)c1)c1ccccc1 [Example 37, N-[(1R,2S)-1-[1-(4-fluorophenyl)indazol-5-yl]oxy-1-phenyl-propan-2-yl]-2-methyl-propanamide] the IC50 was 2.4 nM.
Work on Cc1ccc([C@@H](Oc2ccc3c(cnn3-c3ccc(F)cc3)c2)[C@H](C)NC(=O)C(F)(F)F)cc1C [Example 149, N-[(1R,2S)-1-(3,4-dimethylphenyl)-1-[1-(4-fluorophenyl)indazol-5-yl]oxy-propan-2-yl]-2,2,2-trifluoro-acetamide] yielded an IC50 of 5.5 nM.
COCC(=O)N[C@@H](C)[C@H](Oc1ccc2c(cnn2-c2ccc(F)cc2)c1)c1ccc(C)c(C)c1 [Example 257, N-[(1R,2S)-1-(3,4-dimethylphenyl)-1-[1-(4-fluorophenyl)indazol-5-yl]oxy-propan-2-yl]-2-methoxy-acetamide] gave an IC50 of 13 nM.
Compound COc1cccc([C@@H](Oc2ccc3c(cnn3-c3ccc(F)cc3)c2)[C@H](C)NC(=O)c2cccn2C)c1 [Example 133, N-[(1R,2S)-1-[1-(4-fluorophenyl)indazol-5-yl]oxy-1-(3-methoxyphenyl)propan-2-yl]-1-methyl-pyrrole-2-carboxamide] has an IC50 of 3.3 nM.
C[C@H](NC(=O)C(F)(F)F)[C@H](Oc1ccc2c(cnn2-c2ccc(CN3CCOCC3)cc2)c1)c1ccccc1 [Example 142, 2,2,2-trifluoro-N-((1R,2S)-1-(1-(4-(morpholinomethyl)phenyl)-1H-indazol-5-yloxy)-1-phenylpropan-2-yl)acetamide] showed an IC50 of 5.6 nM.
COc1cccc([C@@H](Oc2cc3cnn(-c4ccc(F)cc4)c3cc2C)[C@H](C)NC(=O)C(F)(F)F)c1 [Example 65, 2,2,2-Trifluoro-N-[(1R,2S)-1-[1-(4-fluorophenyl)-6-methyl-indazol-5-yl]oxy-1-(3-methoxyphenyl)propan-2-yl]acetamide] showed an IC50 of 3.8 nM.
COc1cc([C@@H](Oc2ccc3c(cnn3-c3ccc(F)cc3)c2)[C@H](C)NC(=O)C(F)(F)F)ccc1SC [Example 308, 2,2,2-trifluoro-N-((1R,2S)-1-(1-(4-fluorophenyl)-1H-indazol-5-yloxy)-1-(3-methoxy-4-(methylthio)phenyl)propan-2-yl)acetamide] was tested, and the IC50 was 6.9 nM.
Work on Cc1ccc(C)c([C@@H](Oc2ccc3c(cnn3-c3ccc(F)cc3)c2)[C@H](C)NC(=O)C(C)(C)C)c1 [Example 175, N-[(1R,2S)-1-(2,5-dimethylphenyl)-1-[1-(4-fluorophenyl)indazol-5-yl]oxy-propan-2-yl]-2,2-dimethyl-propanamide] yielded an IC50 of 4.3 nM.
Compound COc1ccccc1[C@@H](Oc1ccc2c(cnn2-c2ccc(F)cc2)c1)[C@H](C)NC(=O)C(C)(C)C [Example 187, N-[(1R,2S)-1-[1-(4-fluorophenyl)indazol-5-yl]oxy-1-(2-methoxyphenyl)propan-2-yl]-2,2-dimethyl-propanamide] has an IC50 of 4.5 nM.
For COCC(=O)N[C@@H](C)[C@H](Oc1ccc2c(cnn2-c2ccc(F)cc2)c1)c1ccccc1 [Example 31, N-[(1R,2S)-1-[1-(4-fluorophenyl)indazol-5-yl]oxy-1-phenyl-propan-2-yl]-2-methoxy-acetamide], the IC50 was 2.8 nM.
Cc1cc(F)ccc1[C@@H](Oc1ccc2c(cnn2-c2ccc(F)cc2)c1)[C@H](C)NC(=O)C(C)(C)F [Example 248, 2-fluoro-N-[(1R,2S)-1-(4-fluoro-2-methyl-phenyl)-1-[1-(4-fluorophenyl)indazol-5-yl]oxy-propan-2-yl]-2-methyl-propanamide] was tested, and the IC50 was 4.8 nM.
